Experimental data from patent US20200262877A1, “ION CHANNEL-BINDING PEPTIDES AND METHODS OF USE THEREOF” (priority 2017, published 2020).
Read-outs that look alike come from different tables or passages of the source. Where a SMILES comes first, the peptide text is derived from it. Bridges are numbered along the chain shown (N, C = ends).

Columns and labels:
panel of 20 ion channels = assay type: cell-based; settings: potassium channels of the panel; 0.2 or 20 μM; FIG. 2
Method: This example describes a method for assaying ion channel activity in cells.
Peptides were screened in duplicate at final concentrations of 20 μM and 200 nM, as determined by amino acid analysis, and diluted into HEPES buffered physiological saline (HBPS). HEK293 or CHO cells from the American Type Culture Collection (ATCC) were transfected with the appropriate ion channel before use. HEK293 cells were grown in Dulbecco's Modified Eagle Medium/Nutrient Mixture F-12, and CHO cells were cultured in Ham's F-12 media. All cultures were supplemented with 10% fetal bovine serum, 100 U/ml penicillin G, 100 μg/ml streptomycin sulfate, and the appropriate selection antibiotics. Prior to use, cells were washed twice with Hank's Balanced Salt Solution, and treated with Accutase cell detachment solution (Sigma-Aldrich). Cells were then washed. Peptides and controls were incubated with cells for at least five minutes.
Percent inhibition was defined as: (1-(Ipeptide/Icontrol))×100%).
Percent values were calculated using the following formula: % activation=(IPeptide/Icontrol)×100%, where IPeptide is the current produced by co-application a peptide with agonist, and Icontrol refers to the current produced by stimulation in control. Control used for each ion channel is the reference compound matched to a particular channel, as illustrated in TABLE 10 below.

hERG = hERG (Homo sapiens, UniProt Q12809); assay: in vitro; settings: 0.2 or 20 μM; FIG. 2
Summary of the method: (§1)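 Transfected HEK293 or CHO cells were exposed for at least 5 min to peptides at 200 nM and 20 μM final, tested in duplicate, in HEPES-buffered physiological saline. Activation was taken as peptide-plus-agonist current over control current ×100, and inhibition as 1 minus that ratio ×100. Each channel's control was its own reference compound.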

Kv1.3 [1] = biological target: T1, Kv1.3 (Homo sapiens, UniProt P22001); assay: cell-based; assay type: cell-based; settings: for activity at 20 µM: peptide at 20 μM
T1 construct: host or cells: HEK293 or CHO
Summary of the method: as §1

Nav1.7 = biological target: T2, Nav1.7 (Homo sapiens, UniProt Q15858); assay: cell-based; assay type: cell-based; settings: 0.2 or 20 μM; FIG. 2
T2 construct: host or cells: HEK293 or CHO

[2] = biological target: T3, Nav1.5 cardiac sodium channel (human SCN5A gene) (Homo sapiens, UniProt Q14524); settings: read-out: IC50 Nav1.5 ion channel inhibition, TP2; human Nav1.5 in CHO cells; TP2 (inactivated state inhibition)
[3] = biological target: T3, Nav1.5 cardiac sodium channel (human SCN5A gene); assay: cell-based
[4] = biological target: Kv1.3 potassium channel (human KCNA3 gene) (Homo sapiens, UniProt P22001); assay: cell-based; set-up: host or cells: CHO; settings: human Kv1.3 in CHO cells
[5] = biological target: Kv1.5 potassium channel (human KCNA5 gene) (Homo sapiens, UniProt P22460); assay: cell-based; set-up: host or cells: CHO; settings: human Kv1.5 in CHO cells
[6] = biological target: Nav1.3 sodium channel (human SCN3A gene) (Homo sapiens, UniProt Q9NY46); assay: cell-based; set-up: host or cells: CHO; settings: human Nav1.3 in CHO cells
[7] = biological target: Nav1.4 sodium channel (human SCN4A gene) (Homo sapiens, UniProt P35499); assay: cell-based; set-up: host or cells: CHO; settings: human Nav1.4 in CHO cells
[8] = biological target: Nav1.7 sodium channel (human SCN9A gene) (Homo sapiens, UniProt Q15858); assay: cell-based; set-up: expressed in transfected cells; host or cells: CHO cells; settings: human Nav1.7 in CHO cells
Kv1.1 = biological target: T4, Kv1.1 (Homo sapiens, UniProt Q09470); assay: cell-based; assay type: cell-based; settings: Kv1.1; peptide at 20 μM; percentage of control, 100% = no change; read-out: Ion channel activity (ion channel inhibition)
T4 construct: host or cells: HEK293 or CHO
Summary of the method: as §1

[9] = biological target: T3, Nav1.5 cardiac sodium channel (human SCN5A gene); assay: in vitro
Kv1.3 [10] = biological target: T1, Kv1.3; settings: prior reports; cited from earlier work
[11] = Kv1.3, percentage of control, 100% = no change, read-out: Ion channel activity (ion channel inhibition)

T3 sequence (Q14524 whole entry): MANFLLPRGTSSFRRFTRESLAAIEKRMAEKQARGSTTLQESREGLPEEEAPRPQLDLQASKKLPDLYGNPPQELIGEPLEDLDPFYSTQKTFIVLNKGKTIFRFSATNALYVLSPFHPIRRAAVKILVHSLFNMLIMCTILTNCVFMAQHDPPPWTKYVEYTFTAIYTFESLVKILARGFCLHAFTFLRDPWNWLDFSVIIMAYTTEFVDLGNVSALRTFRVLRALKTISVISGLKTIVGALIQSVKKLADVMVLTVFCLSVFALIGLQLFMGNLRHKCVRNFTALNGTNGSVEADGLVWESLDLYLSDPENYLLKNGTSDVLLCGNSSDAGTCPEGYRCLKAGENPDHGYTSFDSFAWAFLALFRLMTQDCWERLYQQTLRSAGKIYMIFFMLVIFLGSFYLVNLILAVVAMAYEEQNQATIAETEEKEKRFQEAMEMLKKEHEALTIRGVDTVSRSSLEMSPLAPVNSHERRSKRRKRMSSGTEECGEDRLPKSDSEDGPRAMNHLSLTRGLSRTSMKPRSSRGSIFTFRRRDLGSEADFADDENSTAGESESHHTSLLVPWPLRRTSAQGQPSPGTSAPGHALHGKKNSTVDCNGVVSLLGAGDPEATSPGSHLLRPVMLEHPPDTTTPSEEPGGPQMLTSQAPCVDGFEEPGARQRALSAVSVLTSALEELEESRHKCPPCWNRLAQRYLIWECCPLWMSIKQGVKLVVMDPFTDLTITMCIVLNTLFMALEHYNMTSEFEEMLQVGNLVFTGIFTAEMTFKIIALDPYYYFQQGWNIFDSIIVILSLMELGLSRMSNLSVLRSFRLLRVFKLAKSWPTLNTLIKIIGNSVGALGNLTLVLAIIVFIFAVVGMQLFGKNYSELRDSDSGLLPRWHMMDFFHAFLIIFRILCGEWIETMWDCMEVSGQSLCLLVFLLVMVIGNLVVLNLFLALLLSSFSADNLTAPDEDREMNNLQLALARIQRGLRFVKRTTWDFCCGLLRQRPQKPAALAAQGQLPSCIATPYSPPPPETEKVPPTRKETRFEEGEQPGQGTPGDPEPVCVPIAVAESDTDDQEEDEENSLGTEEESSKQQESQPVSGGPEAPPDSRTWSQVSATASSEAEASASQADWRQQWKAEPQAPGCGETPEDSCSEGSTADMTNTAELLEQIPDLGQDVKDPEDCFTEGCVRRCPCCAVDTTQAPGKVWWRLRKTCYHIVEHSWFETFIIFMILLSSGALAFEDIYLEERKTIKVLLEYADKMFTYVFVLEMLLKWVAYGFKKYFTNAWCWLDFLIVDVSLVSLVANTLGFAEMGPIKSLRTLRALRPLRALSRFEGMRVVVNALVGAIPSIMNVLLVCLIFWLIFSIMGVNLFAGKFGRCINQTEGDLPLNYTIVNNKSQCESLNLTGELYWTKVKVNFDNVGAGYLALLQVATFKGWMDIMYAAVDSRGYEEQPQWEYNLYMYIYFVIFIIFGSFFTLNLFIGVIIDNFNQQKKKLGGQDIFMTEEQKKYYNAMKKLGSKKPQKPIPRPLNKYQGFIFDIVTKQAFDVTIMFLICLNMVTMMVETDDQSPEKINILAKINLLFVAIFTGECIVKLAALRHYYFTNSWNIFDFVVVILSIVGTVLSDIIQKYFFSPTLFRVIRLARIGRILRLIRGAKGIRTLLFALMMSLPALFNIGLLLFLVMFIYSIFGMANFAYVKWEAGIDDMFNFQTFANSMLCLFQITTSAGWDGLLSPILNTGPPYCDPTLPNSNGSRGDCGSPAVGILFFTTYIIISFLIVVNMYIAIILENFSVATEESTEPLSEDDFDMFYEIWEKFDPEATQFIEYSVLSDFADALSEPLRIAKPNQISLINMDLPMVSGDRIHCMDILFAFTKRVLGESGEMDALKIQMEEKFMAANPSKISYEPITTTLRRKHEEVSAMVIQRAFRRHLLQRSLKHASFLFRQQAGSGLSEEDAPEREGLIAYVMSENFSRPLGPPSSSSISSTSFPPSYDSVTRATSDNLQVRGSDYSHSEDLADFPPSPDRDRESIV
T1 sequence (P22001 whole entry): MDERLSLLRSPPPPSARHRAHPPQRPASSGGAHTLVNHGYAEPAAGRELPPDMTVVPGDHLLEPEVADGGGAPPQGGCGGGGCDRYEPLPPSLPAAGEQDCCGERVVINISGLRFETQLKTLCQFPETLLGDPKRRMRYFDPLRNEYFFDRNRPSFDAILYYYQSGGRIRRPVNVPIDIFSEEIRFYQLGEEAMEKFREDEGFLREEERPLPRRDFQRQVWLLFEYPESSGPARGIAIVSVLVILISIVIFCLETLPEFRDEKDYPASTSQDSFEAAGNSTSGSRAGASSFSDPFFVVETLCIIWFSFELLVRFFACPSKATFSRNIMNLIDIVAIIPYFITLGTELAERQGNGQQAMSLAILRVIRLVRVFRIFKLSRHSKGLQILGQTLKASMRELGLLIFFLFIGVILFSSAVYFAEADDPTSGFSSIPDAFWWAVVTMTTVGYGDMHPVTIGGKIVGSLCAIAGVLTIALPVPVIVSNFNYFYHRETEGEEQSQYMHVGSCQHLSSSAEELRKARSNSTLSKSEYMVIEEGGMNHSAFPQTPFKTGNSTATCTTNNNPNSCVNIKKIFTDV
Chain of Nav1.7 sodium channel (human SCN9A gene) (Q15858 whole entry): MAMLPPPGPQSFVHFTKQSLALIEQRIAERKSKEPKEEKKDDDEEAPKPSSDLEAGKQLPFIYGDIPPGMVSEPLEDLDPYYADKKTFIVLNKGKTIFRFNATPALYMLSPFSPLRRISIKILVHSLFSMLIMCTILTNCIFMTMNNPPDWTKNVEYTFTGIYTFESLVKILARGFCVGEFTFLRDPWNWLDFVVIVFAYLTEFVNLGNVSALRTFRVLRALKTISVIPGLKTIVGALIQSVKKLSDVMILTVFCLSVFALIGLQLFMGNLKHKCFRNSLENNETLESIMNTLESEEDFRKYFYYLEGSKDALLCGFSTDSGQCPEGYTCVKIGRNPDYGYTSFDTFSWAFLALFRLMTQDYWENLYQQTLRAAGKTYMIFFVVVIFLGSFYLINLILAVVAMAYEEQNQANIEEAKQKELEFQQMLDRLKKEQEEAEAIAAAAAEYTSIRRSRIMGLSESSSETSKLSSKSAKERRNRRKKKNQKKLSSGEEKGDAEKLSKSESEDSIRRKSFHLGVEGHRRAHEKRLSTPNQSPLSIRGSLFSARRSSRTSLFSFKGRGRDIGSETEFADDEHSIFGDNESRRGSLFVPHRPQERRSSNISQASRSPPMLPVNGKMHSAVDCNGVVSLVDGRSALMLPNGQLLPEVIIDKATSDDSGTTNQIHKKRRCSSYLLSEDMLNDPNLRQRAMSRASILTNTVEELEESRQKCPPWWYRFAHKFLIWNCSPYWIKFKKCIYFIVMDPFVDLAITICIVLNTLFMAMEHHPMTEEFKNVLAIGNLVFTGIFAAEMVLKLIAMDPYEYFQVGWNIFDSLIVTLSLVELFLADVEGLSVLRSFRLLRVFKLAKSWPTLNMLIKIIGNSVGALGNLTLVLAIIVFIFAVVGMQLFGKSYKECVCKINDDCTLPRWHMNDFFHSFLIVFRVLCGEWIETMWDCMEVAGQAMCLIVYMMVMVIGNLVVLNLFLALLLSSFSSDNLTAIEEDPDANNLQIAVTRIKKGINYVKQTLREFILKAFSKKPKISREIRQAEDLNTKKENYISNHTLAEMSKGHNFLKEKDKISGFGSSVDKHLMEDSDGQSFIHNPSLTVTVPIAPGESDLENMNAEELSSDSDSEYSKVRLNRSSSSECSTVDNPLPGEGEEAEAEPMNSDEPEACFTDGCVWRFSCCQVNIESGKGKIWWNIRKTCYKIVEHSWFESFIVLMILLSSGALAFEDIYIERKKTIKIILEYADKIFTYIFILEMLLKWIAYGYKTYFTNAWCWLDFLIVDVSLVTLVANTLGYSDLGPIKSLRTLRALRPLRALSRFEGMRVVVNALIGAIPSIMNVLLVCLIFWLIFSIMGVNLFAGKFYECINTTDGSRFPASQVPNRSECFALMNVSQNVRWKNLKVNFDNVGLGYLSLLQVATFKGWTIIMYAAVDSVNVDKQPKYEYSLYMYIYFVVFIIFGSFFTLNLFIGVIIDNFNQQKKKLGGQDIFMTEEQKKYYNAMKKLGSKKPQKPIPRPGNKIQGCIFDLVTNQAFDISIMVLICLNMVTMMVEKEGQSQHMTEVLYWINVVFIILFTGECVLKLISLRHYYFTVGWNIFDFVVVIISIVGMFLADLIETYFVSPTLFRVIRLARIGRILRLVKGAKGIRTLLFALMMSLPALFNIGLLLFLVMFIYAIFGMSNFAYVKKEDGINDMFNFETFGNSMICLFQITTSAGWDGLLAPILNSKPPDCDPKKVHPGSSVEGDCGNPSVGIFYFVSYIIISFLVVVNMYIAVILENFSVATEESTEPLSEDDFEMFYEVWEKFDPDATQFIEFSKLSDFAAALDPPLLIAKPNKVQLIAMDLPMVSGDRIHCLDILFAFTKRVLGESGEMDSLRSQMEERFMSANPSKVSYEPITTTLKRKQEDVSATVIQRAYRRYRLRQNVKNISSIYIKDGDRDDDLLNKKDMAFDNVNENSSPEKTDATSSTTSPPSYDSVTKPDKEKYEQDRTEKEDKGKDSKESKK
Chain of Kv1.3 potassium channel (human KCNA3 gene) (P22001 whole entry): as the sequence (P22001 whole entry) above
T4 sequence (Q09470 whole entry): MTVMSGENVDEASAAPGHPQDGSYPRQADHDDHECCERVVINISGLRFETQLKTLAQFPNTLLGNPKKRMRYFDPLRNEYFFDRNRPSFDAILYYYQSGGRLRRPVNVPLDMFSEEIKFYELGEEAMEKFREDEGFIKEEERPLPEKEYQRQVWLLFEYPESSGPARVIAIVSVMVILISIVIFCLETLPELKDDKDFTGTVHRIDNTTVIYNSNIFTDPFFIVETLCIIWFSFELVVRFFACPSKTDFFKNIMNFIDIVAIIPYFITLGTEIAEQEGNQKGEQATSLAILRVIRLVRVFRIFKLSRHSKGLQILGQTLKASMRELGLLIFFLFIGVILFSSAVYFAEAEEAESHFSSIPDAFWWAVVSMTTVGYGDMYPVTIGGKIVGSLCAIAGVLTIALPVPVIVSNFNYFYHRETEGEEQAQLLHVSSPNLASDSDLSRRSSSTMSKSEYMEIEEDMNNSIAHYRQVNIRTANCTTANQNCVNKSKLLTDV

## CC[C@H](C)[C@@H]1NC(=O)[C@@H]2CSSC[C@H](NC(=O)[C@H](CCCCN)NC(=O)[C@@H](NC(=O)[C@H](CC(N)=O)NC(=O)[C@@H](NC(=O)[C@@H]3CCCN3C(=O)[C@@H](NC(=O)CNC(=O)[C@H](CO)NC(=O)CN)C(C)C)[C@@H](C)CC)C(C)C)C(=O)N[C@@H](CCCNC(=N)N)C(=O)NCC(=O)N[C@@H](CO)C(=O)N[C@@H](CCCNC(=N)N)C(=O)N[C@@H](CC(=O)O)C(=O)N[C@H]3CSSC[C@H](NC(=O)[C@H](CCCCN)NC(=O)[C@H](CO)NC(=O)[C@H](CC(N)=O)NC1=O)C(=O)N[C@@H](Cc1c[nH]cn1)C(=O)N[C@H](C(=O)N[C@H](C(=O)N1CCC[C@H]1C(=O)O)[C@@H](C)O)CSSC[C@H](NC(=O)[C@@H]1CCCN1C(=O)[C@H](CC(=O)O)NC(=O)[C@H](CC(C)C)NC3=O)C(=O)N[C@@H](CCCCN)C(=O)N[C@@H](CCCCN)C(=O)N[C@@H](C)C(=O)NCC(=O)N[C@@H](CCSC)C(=O)N[C@@H](CCCNC(=N)N)C(=O)N[C@@H](Cc1ccccc1)C(=O)NCC(=O)N[C@@H](CCCCN)C(=O)N2 [SEQ ID NO: 5] (H-GSGVPINVKCRGSRDCLDPCKKAGMRFGKCINSKCHCTP-OH; disulfide 10-30, 16-35, 20-37)
Panel of 20 ion channels
  Activity on potassium channels: active on a subset of potassium channels
hERG
  Activity against / inhibition of hERG (Kv11.1): showed additional activity
Kv1.3 [1]; [11]
  activity at 20 µM: < 50%
Nav1.7
  Activity against Nav1.7 channels: showed additional activity
[2]
  IC50: > 1 µM
[3]
  IC50: > 1 µM
[4]; test pulse TP1, read-out: IC50 Kv1.3 ion channel inhibition, TP1
  IC50: > 1 µM
[4]; test pulse TP6, read-out: IC50 Kv1.3 ion channel inhibition, TP6
  IC50: > 1 µM
[5]; test pulse TP1, read-out: IC50 Kv1.5 ion channel inhibition, TP1
  IC50: > 1 µM
[5]; test pulse TP6, read-out: IC50 Kv1.5 ion channel inhibition, TP6
  IC50: > 1 µM
[6]; TP1 (tonic inhibition), read-out: IC50 Nav1.3 ion channel inhibition, TP1
  IC50: > 1 µM
[6]; TP2 (inactivated state inhibition), read-out: IC50 Nav1.3 ion channel inhibition, TP2
  IC50: > 1 µM
[7]; TP1 (tonic inhibition), read-out: IC50 Nav1.4 ion channel inhibition, TP1
  IC50: > 1 µM
[7]; TP2 (inactivated state inhibition), read-out: IC50 Nav1.4 ion channel inhibition, TP2
  IC50: > 1 µM
[8]; TP1 (tonic inhibition), read-out: IC50 Nav1.7 ion channel inhibition, TP1
  IC50: > 1 µM
[8]; TP2 (inactivated state inhibition), read-out: IC50 Nav1.7 ion channel inhibition, TP2
  IC50: > 1 µM

## CC[C@H](C)[C@H](NC(=O)[C@H](CCCNC(=N)N)NC(=O)[C@@H](NC(=O)[C@H](CO)NC(=O)CN)C(C)C)C(=O)N1CCC[C@H]1C(=O)N[C@H](C(=O)N[C@@H](CO)C(=O)N[C@H]1CSSC[C@@H]2NC(=O)[C@H](CCCCN)NC(=O)CNC(=O)[C@H](Cc3ccccc3)NC(=O)[C@H](CCCNC(=N)N)NC(=O)[C@H](CCSC)NC(=O)CNC(=O)[C@H](C)NC(=O)[C@H](CC(=O)O)NC(=O)[C@H](CCCCN)NC(=O)[C@@H]3CSSC[C@@H](C(=O)N[C@H](C(=O)N4CCC[C@H]4C(=O)N[C@@H](CCCCN)C(=O)O)[C@@H](C)O)NC(=O)[C@H](CC(=O)O)NC(=O)[C@H](CSSC[C@H](NC(=O)[C@H](CCC(N)=O)NC(=O)CNC(=O)[C@H](CO)NC(=O)[C@H](Cc4c[nH]cn4)NC(=O)[C@H](CCCCN)NC1=O)C(=O)N[C@@H](CC(C)C)C(=O)N[C@@H](CCCCN)C(=O)N1CCC[C@H]1C(=O)N3)NC(=O)[C@H](CCCCN)NC(=O)CNC(=O)[C@H](CC(N)=O)NC(=O)[C@H](CCSC)NC2=O)C(C)C [SEQ ID NO: 6] (H-GSVRIPVSCKHSGQCLKPCKDAGMRFGKCMNGKCDCTPK-OH; disulfide 9-29, 15-34, 19-36)
Panel of 20 ion channels
  Activity on potassium channels: active on a subset of potassium channels
Kv1.1
  activity at 20 µM: < 50%
Kv1.3 [1]; Kv1.3, peptide at 0.2 μM, percentage of control, 100% = no change, read-out: Ion channel activity (ion channel inhibition)
  activity at 0.2 µM: < 80%
Kv1.3 [1]; [11]
  activity at 20 µM: < 50%
[9]
  IC50: > 1 µM

## GSNFKVEGACSKPCRKYCIDKGARNGKCINGRCHCYY [SEQ ID NO: 12]
Kv1.3 [1]; 0.2 or 20 μM, FIG. 2
  Kv1.3 inhibition: inhibit Kv1.3, consistent with these results
Kv1.3 [10]
  Kv1.3 inhibition, previously reported: previously reported to inhibit Kv1.3
